Test results reported in publication PMC8706516, “Spray-Dried Powder Formulation of Capreomycin Designed for Inhaled Tuberculosis Therapy” (Pharmaceutics, 2021).
Where two headings read alike, the source gives them in different places. Marks after values point to notes of the source that are not given here.

Format: in vivo, BALB/c mice
Conditions: 20 mg/kg
Description: BALB/c mice of either gender aged 7 to 9 weeks weighing between 18 to 30 g were employed in this study. The mice were obtained from the Centre for Comparative Medicine Research, The University of Hong Kong. They were housed in a 12-h light/12-h dark cycle with food and water supplied ad libitum. All the animal experiments were performed with the approval from the Committee on the Use of Live Animals in Teaching and Research, The University of Hong Kong (CULATR 4921-19, approved on 1 February 2019).
The mice were randomly divided into two treatment groups (n = 45 per group, five mice per time point, nine time points in total). The intravenous (IV) group received capreomycin (sulfate) solution prepared in normal saline (4 mg/mL) via tail vein injection at a dose of 20 mg/kg. Intratracheal (IT) group received the C25_T90 formulation as powder aerosol intratracheally as previously described. In brief, the powder was loaded in a 200 µL gel loading pipette tip, which was connected with a three-way stopcock and 1 mL syringe. The pipette tip was inserted into the trachea of mice under anesthesia. The powder was dispersed into the lungs of mice by 0.6 mL of air in the syringe. After each powder insufflation, the pipette tip was removed and rinsed with 1 mL ultra-pure water. The rinsing solution was assayed by HPLC to calculate the residual mass of capreomycin in the tip. The delivered mass of capreomycin was calculated as drug content in the loaded mass of powder minus the residual mass of capreomycin in the tip. The insufflation efficiency (%) was the ratio of delivered mass of capreomycin to the loaded mass of capreomycin. According to a preliminary study, the insufflation efficiency of C25_T90 formulation was around 80% (unpublished data). […] The delivered dose within 17.5 to 22.5 mg/kg was considered successful administration, and mice that received dose outside this range were excluded. At 5 min, 15 min, 30 min, 1 h, 2 h, 4 h, 6 h, 8 h, and 24 h post-administration, the mice were euthanized with overdose pentobarbital (200 mg/kg). The whole blood was collected by cardiac puncture, followed by centrifugation at 13,000 rpm for 10 min to obtain the plasma. The lungs were collected and frozen in liquid nitrogen immediately. The plasma and lung tissues were stored at −80 °C until further analysis.
The extraction of capreomycin from plasma and tissue homogenates was performed according to a previous study with minor modification. Tissue homogenates were obtained by homogenizing the tissue with sterile water. A volume of 1 µL perchloric acid was added to a microcentrifuge tube containing 100 µL of plasma or tissue homogenates to induce protein precipitation. The mixtures were vortexed for 10 min and centrifuged at 16,000× g for 10 min. The supernatant was collected and neutralized with 110 µL basic mix of 1:10 KOH/K2HPO4 solution. The obtained mixtures were then vortexed, followed by centrifugation at 16,000× g for 15 min. The supernatant was transferred to glass vials for HPLC analysis. A standard curve was obtained by spiking known concentrations of capreomycin (0.6 to 40.0 µg/mL) into blank plasma or blank lung tissue homogenate followed by treatment as mentioned above. HPLC was performed using a C18 column (5 μm, 4.6 × 250 mm, Agilent, Santa Clara, CA, USA) with a guard cartridge. In this HPLC method, HFBA replaced TFA to improve peak resolution of the samples. The mobile phase consisted of 0.1% HFBA in ultrapure water (solvent A) and 0.1% HFBA in HPLC grade acetonitrile (solvent B), pumped at 1 mL/min under the following gradient: 0 to 2 min, 80% A; 2 to 22 min, 80–20% A; 22 to 25 min, 20% A (v/v). A volume of 50 µL sample was injected and capreomycin was detected by UV absorption at 268 nm. Capreomycin eluted at approximately 9.7 min with this method. […]

[1] = lung tissue, intravenous solution
[2] = lung tissue, intravenous, solution in normal saline, HPLC-UV, noncompartmental, mean ± SD, n = 5
[3] = lung tissue, intravenous, solution in normal saline, HPLC-UV, noncompartmental, mean ± SD, only three sets of data
[4] = plasma, intravenous, solution in normal saline, HPLC-UV, noncompartmental, mean ± SD, n = 5

Capreomycin
Time after administration at which capreomycin was no longer detectable in the lung [1]: 1 h
Time to Cmax [1]: ≤ 20 min
AUC0–t [2]: 6710 ± 510 ng·h/mL
Cmax [2]: 18.23 ± 8.34 µg/g
MRT [2]: 13.8 ± 7.8 min
Tmax [2]: 7.2 ± 4.2 min
AUC0–∞ [3]: 7.78 ± 0.46 ^b µg·h/mL
Kel [3]: 2.37 ± 0.23 ^b h^−1
t1/2 [3]: 0.29 ± 0.03 ^b h
Cmax [4]: 74.89 ± 10.94 µg/mL
Tmax (plasma, intravenous solution): ≤ 10 min
AUC0–t [4]: 32550 ± 5520 ng·h/mL
AUC0–∞ [4]: 33.78 ± 5.54 µg·h/mL
Kel [4]: 2.74 ± 1.67 h⁻¹
t1/2 [4]: 0.34 ± 0.20 h
